# Laboratory results reported in PubChem BioAssay (NCI).
#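 Step 1: Grow cells in 96-well plates. Step 2: Expose to compound for 48 hours at 5 concentrations. Step 3: Interpolate endpoints linearly; if unreached, use highest concentration. Definition used: TGI = concentration required for complete inhibition of growth.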
# Tests used:
# Assay in all cases: NCI anticancer screen, dose series, 48 h
# [1] = system: 786-0 renal
# [2] = system: A498 renal
# [3] = system: A549 NSCLC
# [4] = system: ACHN renal
# [5] = system: BT-549 breast
# [6] = system: CAKI-1 renal
# [7] = system: CCRF-CEM leukemia
# [8] = system: COLO 205 colon
# [9] = system: DU-145 prostate
# [10] = system: EKVX NSCLC
# [11] = system: HCC-2998 colon
# [12] = system: HCT-116 colon
# [13] = system: HCT-15 colon
# [14] = system: HL-60(TB) leukemia
# [15] = system: HOP-62 NSCLC
# [16] = system: HOP-92 NSCLC
# [17] = system: HS 578T breast
# [18] = system: HT29 colon
# [19] = system: IGROV1 ovarian
# [20] = system: K-562 leukemia
# [21] = system: KM12 colon
# [22] = system: LOX IMVI melanoma
# [23] = system: M14 melanoma
# [24] = system: MALME-3M melanoma
# [25] = system: MDA-MB-231 breast
# [26] = system: MDA-MB-435
# [27] = system: MDA-N
# [28] = system: MOLT-4 leukemia
# [29] = system: NCI-H226 lung
# [30] = system: NCI-H23 lung
# [31] = system: NCI-H460 lung
# [32] = system: NCI-H522 lung
# [33] = system: NCI/ADR-RES ovarian
# [34] = system: OVCAR-3 ovarian
# [35] = system: OVCAR-4 ovarian
# [36] = system: OVCAR-8 ovarian
# [37] = system: RPMI-8226 leukemia
# [38] = system: RXF 393 renal
# [39] = system: SF-268 CNS
# [40] = system: SF-295 CNS
# [41] = system: SF-539 CNS
# [42] = system: SK-MEL-2 melanoma
# [43] = system: SK-MEL-28 melanoma
# [44] = system: SK-MEL-5 melanoma
# [45] = system: SK-OV-3 ovarian
# [46] = system: SN12C renal
# [47] = system: SNB-75 CNS
# [48] = system: SR leukemia
# [49] = system: SW-620 colon
# [50] = system: T-47D breast
# [51] = system: TK-10 renal
# [52] = system: U251 CNS
# [53] = system: UACC-257 melanoma
# [54] = system: UO-31 renal
# [55] = system: MCF7 breast
# [56] = system: OVCAR-5 ovarian
# [57] = system: PC-3 prostate
# [58] = system: UACC-62 melanoma
smiles,measurement,setting,value
O=C(Nc1ccccc1)N1CCN(C(=O)Nc2ccccc2)C1=S,TGI,[1],> 100 µM
same,TGI,[2],7.64 µM
same,TGI,[3],> 100 µM
same,TGI,[4],> 100 µM
same,TGI,[5],> 100 µM
same,TGI,[6],> 100 µM
same,TGI,[7],> 100 µM
same,TGI,[8],> 100 µM
same,TGI,[9],> 100 µM
same,TGI,[10],> 100 µM
same,TGI,[11],> 100 µM
same,TGI,[12],> 100 µM
same,TGI,[13],> 100 µM
same,TGI,[14],> 100 µM
same,TGI,[15],67.9 µM
same,TGI,[16],63.5 µM
same,TGI,[17],> 100 µM
same,TGI,[18],> 100 µM
same,TGI,[19],> 100 µM
same,TGI,[20],> 100 µM
same,TGI,[21],> 100 µM
same,TGI,[22],> 100 µM
same,TGI,[23],> 100 µM
same,TGI,[24],> 100 µM
same,TGI,[25],> 100 µM
same,TGI,[26],> 100 µM
same,TGI,[27],> 100 µM
same,TGI,[28],> 100 µM
same,TGI,[29],70.5 µM
same,TGI,[30],55.4 µM
same,TGI,[31],> 100 µM
same,TGI,[32],> 100 µM
same,TGI,[33],> 100 µM
same,TGI,[34],> 100 µM
same,TGI,[35],> 100 µM
same,TGI,[36],> 100 µM
same,TGI,[37],> 100 µM
same,TGI,[38],43.6 µM
same,TGI,[39],47.8 µM
same,TGI,[40],58.4 µM
same,TGI,[41],41.5 µM
same,TGI,[42],> 100 µM
same,TGI,[43],> 100 µM
same,TGI,[44],> 100 µM
same,TGI,[45],76.3 µM
same,TGI,[46],> 100 µM
same,TGI,[47],47.2 µM
same,TGI,[48],> 100 µM
same,TGI,[49],> 100 µM
same,TGI,[50],> 100 µM
same,TGI,[51],> 100 µM
same,TGI,[52],> 100 µM
same,TGI,[53],> 100 µM
same,TGI,[54],60.7 µM
COc1ccc(CCNC(=O)Cc2ccccc2CO)cc1OC,TGI,[1],> 100 µM
same,TGI,[2],> 100 µM
same,TGI,[3],> 100 µM
same,TGI,[4],> 100 µM
same,TGI,[5],> 100 µM
same,TGI,[6],> 100 µM
same,TGI,[7],> 100 µM
same,TGI,[8],> 100 µM
same,TGI,[9],> 100 µM
same,TGI,[10],> 100 µM
same,TGI,[11],> 100 µM
same,TGI,[12],> 100 µM
same,TGI,[13],> 100 µM
same,TGI,[14],> 100 µM
same,TGI,[15],> 100 µM
same,TGI,[16],> 100 µM
same,TGI,[17],> 100 µM
same,TGI,[18],> 100 µM
same,TGI,[19],> 100 µM
same,TGI,[20],> 100 µM
same,TGI,[21],> 100 µM
same,TGI,[22],> 100 µM
same,TGI,[23],> 100 µM
same,TGI,[55],> 100 µM
same,TGI,[25],> 100 µM
same,TGI,[26],> 100 µM
same,TGI,[27],> 100 µM
same,TGI,[28],> 100 µM
same,TGI,[29],> 100 µM
same,TGI,[30],> 100 µM
same,TGI,[31],> 100 µM
same,TGI,[32],> 100 µM
same,TGI,[33],> 100 µM
same,TGI,[34],> 100 µM
same,TGI,[35],> 100 µM
same,TGI,[56],> 100 µM
same,TGI,[36],> 100 µM
same,TGI,[57],> 100 µM
same,TGI,[37],> 100 µM
same,TGI,[38],> 100 µM
same,TGI,[39],> 100 µM
same,TGI,[40],> 100 µM
same,TGI,[41],> 100 µM
same,TGI,[42],> 100 µM
same,TGI,[43],> 100 µM
same,TGI,[44],> 100 µM
same,TGI,[45],> 100 µM
same,TGI,[46],> 100 µM
same,TGI,[47],> 100 µM
same,TGI,[48],> 100 µM
same,TGI,[49],> 100 µM
same,TGI,[50],> 100 µM
same,TGI,[51],> 100 µM
same,TGI,[52],> 100 µM
same,TGI,[53],> 100 µM
same,TGI,[58],> 100 µM
same,TGI,[54],> 100 µM
O=P1(N(CCCl)CCCl)Oc2ccc(Cl)cc2C(C(Cl)(Cl)Cl)c2cc(Cl)ccc2O1 (configuration not stated),TGI,[1],30.7 µM
same,TGI,[2],> 100 µM
same,TGI,[3],> 100 µM
same,TGI,[4],> 100 µM
same,TGI,[5],> 100 µM
same,TGI,[6],> 100 µM
same,TGI,[7],> 100 µM
same,TGI,[8],26.5 µM
same,TGI,[9],> 100 µM
same,TGI,[10],> 100 µM
same,TGI,[11],34.3 µM
same,TGI,[12],15.9 µM
same,TGI,[13],23.5 µM
same,TGI,[14],> 100 µM
same,TGI,[15],27.9 µM
same,TGI,[16],40.4 µM
same,TGI,[17],41 µM
same,TGI,[18],18.9 µM
same,TGI,[20],> 100 µM
same,TGI,[21],33.4 µM
same,TGI,[22],28.7 µM
same,TGI,[23],98.4 µM
same,TGI,[55],73.9 µM
same,TGI,[25],44.4 µM
same,TGI,[26],71.8 µM
same,TGI,[27],87.7 µM
same,TGI,[28],> 100 µM
same,TGI,[29],50.9 µM
same,TGI,[30],> 100 µM
same,TGI,[31],29.8 µM
same,TGI,[32],42.9 µM
same,TGI,[33],> 100 µM
same,TGI,[34],24.3 µM
same,TGI,[35],> 100 µM
same,TGI,[56],> 100 µM
same,TGI,[36],> 100 µM
same,TGI,[57],> 100 µM
same,TGI,[37],> 100 µM
same,TGI,[38],29.3 µM
same,TGI,[39],> 100 µM
same,TGI,[40],23.7 µM
same,TGI,[41],29.9 µM
same,TGI,[42],47.3 µM
same,TGI,[43],> 100 µM
same,TGI,[44],24 µM
same,TGI,[45],> 100 µM
same,TGI,[46],57.6 µM
same,TGI,[47],37.9 µM
same,TGI,[48],30.6 µM
same,TGI,[49],> 100 µM
same,TGI,[50],> 100 µM
same,TGI,[51],89.5 µM
same,TGI,[52],29.2 µM
same,TGI,[53],> 100 µM
same,TGI,[58],26.7 µM
same,TGI,[54],> 100 µM
